According to patent publication US7264956B2, “Compounds and methods for inhibiting axillary malodour” (Givaudan SA, priority 2001, dated 2007):
Where two headings read alike, the source gives them in different places. Where a SMILES comes first, the peptide text is derived from it.

What was measured:
[1] = target: T1, isolated enzyme (extracts of A×20) (Corynebacterium striatum, UniProt Q8GGD4); test: Low throughput screening for inhibitors, isolated enzyme (released lauric acid by GC); assay type: biochemical; settings: substrate Nα-lauroyl-L-glutamine, 2 h; for inhibition at 5000 µM / % inhibition of the isolated enzyme: 5 mM
T1 construct: an enzyme may be isolated from cellular extracts obtained from wild-type bacterial strains; endogenous in cells; host or cells: Corynebacterium striatum Ax20 (DSM 14267), mechanically disrupted; crude extract or chromatographically purified enzyme
Protocol: (§1) Extracts of A×20 were prepared by mechanical disruption as described in Example 3. The extract (0.5 ml corresponding to 2 ml initial cell culture) was added to 3.5 ml of Buffer A and amended with 40 μl of substrate (Nα-lauroyl-L-glutamine, 5% stock solution in methanol). Parallel samples were additionally amended with potential inhibitory compounds to give a final concentration of 0.5 and 5 mM. The samples were incubated for 2 h and then extracted with MTBE and HCI and analysed for released lauric acid using capillary GC. By comparing the samples containing potential inhibitory compounds with control samples with enzyme and substrate only, the inhibition (%) was calculated. The same assay was also made either with purified enzyme from the wild-type strain (see example 3) or with extracts from E.coli Top 10/pBADgIII AMRE induced with arabinose (see example 6). Furthermore, the same assay was made using stationary phase living cells of A×20 instead of an isolated enzyme preparation. In this case successful uptake of the inhibitors into the cells and inhibition are measured simultaneously.

[2] = target: T2, enzyme extracted from Corynebacterium striatum A×20 (AMRE, Nα-acyl-glutamine-aminoacylase) (Corynebacterium striatum, UniProt Q8GGD4); test: Substrate specificity of the enzyme (capillary GC of released acid or alcohol); assay type: biochemical; settings: for Cleavage by enzyme: 500 ppm in Buffer A, 24 h incubation
T2 construct: an enzyme may be isolated from cellular extracts obtained from wild-type bacterial strains; endogenous in cells; host or cells: Corynebacterium striatum Ax20 (DSM 14267), mechanically disrupted; crude extract or chromatographically purified enzyme
Protocol: To understand in detail the structural requirements of substrates, the enzyme extracted from Corynebacterium striatum A×20 was incubated with a wide variety of said compounds related to the originally isolated Nα-3-methyl-3-hydroxy-hexanoyl-L-glutamine present in sweat. Each compound was used at a concentration of 500 ppm in Buffer A, and analysis of released acid or alcohol was done by capillary GC after 24 h of incubation. First, different modifications at the N-terminus were tested.

[3] = target: T3, enzyme activity in living cells of A×20 (Corynebacterium striatum, UniProt Q8GGD4); test: Low throughput screening for inhibitors, stationary phase living cells of A×20; assay type: cell-based; settings: 5 mM; substrate Nα-lauroyl-L-glutamine, 2 h
T3 construct: stationary phase living cells of A×20; endogenous in cells; host or cells: Corynebacterium striatum Ax20, stationary-phase living cells
Protocol: as §1

T3 sequence (Q8GGD4 2-400): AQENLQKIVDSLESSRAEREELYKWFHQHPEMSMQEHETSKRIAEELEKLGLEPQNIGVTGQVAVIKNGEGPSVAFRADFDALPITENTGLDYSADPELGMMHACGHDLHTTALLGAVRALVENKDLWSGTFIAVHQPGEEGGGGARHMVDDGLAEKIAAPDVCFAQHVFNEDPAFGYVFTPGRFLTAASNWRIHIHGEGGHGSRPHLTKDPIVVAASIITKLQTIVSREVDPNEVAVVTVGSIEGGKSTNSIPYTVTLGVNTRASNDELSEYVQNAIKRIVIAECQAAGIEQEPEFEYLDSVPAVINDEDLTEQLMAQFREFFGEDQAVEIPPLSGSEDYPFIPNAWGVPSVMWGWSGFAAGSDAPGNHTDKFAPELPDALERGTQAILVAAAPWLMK
T1 sequence (Q8GGD4 2-400): as above
T2 sequence (Q8GGD4 2-400): as above

Compound | Cleavage by enzyme [2] | cleavage of substrate by enzyme (in words) [2] | further results
OC(CS)C(O)CS (stereo not drawn) [Dithiothreitol, 2,3-dihydroxy-butane-1,4-dithiol] |  |  | inhibition at 500 µM ([1]; 0.5 mM): 98%; inhibition at 5000 µM [1]: 100%
O=C(N[C@@H](Cc1ccc(O)cc1)C(=O)O)OCc1ccccc1 [compound 15, Carbobenzyloxy-L-tyrosine] | − |  | 
COc1ccc(SC(=O)N[C@@H](CCC(N)=O)C(=O)O)cc1 [Nα-(4-methoxy-phenylsulfanylcarbonyl)-L-glutamine] |  | able to be cleaved | 
CCCCCCCCCCCCCC(=O)N[C@@H](CCC(N)=O)C(=O)O [Nα-tetradecanoyl-L-glutamine] |  | able to be cleaved | 
CC(CCOC(=O)N[C@@H](CCC(N)=O)C(=O)O)CCc1ccccc1 (stereo partly drawn) [Nα-(3-Methyl-5-phenylpentanoxycarbonyl)-L-glutamine] |  | able to be cleaved | 
NC(=O)CC[C@H](NC(=O)OCCc1ccccc1)C(=O)O [Nα-2-Phenylethyloxycarbonyl-L-glutamine] |  | able to be cleaved | 
CCCCCCCCCCCC(=O)N[C@@H](CCCNC(=N)N)C(=O)O [compound 8, Nα-Lauroyl-L-arginine] | − |  | 
CCC=CCCOC(=O)N[C@@H](CCC(N)=O)C(=O)O [Nα-(3-hexenyl)oxycarbonyl-L-glutamine] |  | able to be cleaved | 
CC(C)=CCCC(C)CCOC(=O)N[C@@H](CCC(N)=O)C(=O)O (stereo partly drawn) [Nα-3,7-Dimethyl-6-octenyloxycarbonyl-L-glutamine] |  | able to be cleaved | 
O=C(CC[C@H](NOCc1ccccc1)C(=O)O)NCc1ccccc1 [compound 22, 4-benzylcarbamoyl-2-(S)-benzyloxyamino-butyric acid] | − | cannot cleave | 
c1ccc(CN(CCN(Cc2ccccn2)Cc2ccccn2)Cc2ccccn2)nc1 [N,N,N′,N′-tetrakis-(2-pyridylmethyl)-ethylendiamine] |  |  | inhibition at 5000 µM [1]: 87.9%; inhibition at 5000 µM [3]: 85.2%
NC(=O)CC[C@H](NC(=O)OCc1ccccc1)C(=O)NCC(=O)O [compound 21, Carbobenzyloxy-L-glutamine- Gly-OH] (HELM PEPTIDE1{[O=C(OCc1ccccc1)[*:2]].Q.G}$$$$V2.0) | − | does not cleave | 
CCCC(C)(O)CC(=O)N[C@@H](CCC(N)=O)C(=O)O (stereo partly drawn) [Nα-(3-hydroxy-3-methyl-hexanoyl)-L-glutamine] |  | able to be cleaved | 
CCCCCCCCCCCC(=O)N[C@@H](CC(=O)O)C(=O)O [compound 6, N-Lauroyl-L-aspartate] | − |  | 
NC(=O)CC[C@H](NC(=O)OCC12CC3CC(CC(C3)C1)C2)C(=O)O [Nα-(2-Adamantan-1-yl-methoxycarbonyl)-L-glutamine] |  | able to be cleaved | 
CCCCOC(=O)N[C@@H](CCC(N)=O)C(=O)O [Nα-Butyloxycarbonyl-L-glutamine] |  | able to be cleaved | 
CCCCCCCCCC(=O)N[C@@H](CCC(N)=O)C(=O)O [Nα-decanoyl-L-glutamine] |  | able to be cleaved | 
O=P(O)(O)CN(CP(=O)(O)O)CP(=O)(O)O [Aminotri(methylene-phosphonic acid)] |  |  | % inhibition of the isolated enzyme [1]: 76.6%; % inhibition of enzyme activity in living cells [3]: 55.7%
CCCCCCCCCCCC(=O)N[C@@H](CCCCN)C(=O)O [compound 7, Nα-Lauroyl-L-lysine] | − |  | 
CCCCCCCCCC(=O)N[C@@H](CCC(N)=O)C(=O)O [compound 3, Nα-decanoyl-L-glutamine] | +++ (+++ cleavage over 50%) |  | 
O=C(N[C@@H](Cc1c[nH]cn1)C(=O)O)OCc1ccccc1 [compound 17, Carbobenzyloxy-L-histidine] | − |  | 

Compound | Cleavage by enzyme [2] | cleavage of substrate by enzyme (in words) [2] | further results
O=C(O)CNCCNCC(=O)O [Ethylendiamine-2-2′-diacetic acid] |  |  | % inhibition of the isolated enzyme [1]: 100%; % inhibition of enzyme activity in living cells [3]: 58.3%
COC(=O)[C@H](CCC(N)=O)NC(=O)OCc1ccccc1 [compound 20, Carbobenzyloxy-L-glutamine-O-Me] | − | does not cleave | 
CCCCCCCCCCCC(=O)N[C@@H](C)C(=O)O [compound 9, N-lauroyl-L-alanine] | + (+ indicates cleavage < 10%) |  | 
O=C(O)CC[C@H](NC(=O)OCc1ccccc1)C(=O)O [compound 11, Carbobenzyloxy-L-glutamate] | − |  | 
CC(C)=CCCC(C)CCOC(=O)N[C@@H](CCC(N)=O)C(=O)O (stereo partly drawn) [compound 5, Nα-3,7-Dimethyl-6-octenyloxycarbonyl-L-glutamine] | +++ (+++ cleavage over 50%) | can cleave | 
O=C(O)c1cccc(C(=O)O)n1 [Pyridine-2,6dicarboxylic acid] |  |  | inhibition at 5000 µM [1]: 100%; inhibition at 5000 µM [3]: 64.3%
c1ccc(-c2ccccn2)nc1 [2,2′-bipyridyl] |  |  | inhibition at 5000 µM [1]: 65%
NC(=O)CC[C@H](NC(=O)OCCC12CC3CC(CC(C3)C1)C2)C(=O)O [Nα-(2-Adamantan-1-yl-ethoxycarbonyl)-L-glutamine] |  | able to be cleaved | 
O=C(O)C[C@H](NC(=O)OCc1ccccc1)C(=O)O [compound 13, Carbobenzyloxy-L-aspartate] | − |  | 
CCCC(C)=CC(=O)N[C@@H](CCC(N)=O)C(=O)O [Nα(3-methyl-2-hexenoyl)-L-glutamine] |  | able to be cleaved | 
C=CCCCCCCCCC(=O)N[C@@H](CCC(N)=O)C(=O)O [Nα-(11-undecenoyl)-L-glutamine] |  | able to be cleaved | 
O=C(N[C@@H](CO)C(=O)O)OCc1ccccc1 [compound 14, Carbobenzyloxy-L-serine] | − |  | 
NC(=O)CC[C@@H](NC(=O)OCc1ccccc1)C(=O)O [compound 19, Carbobenzyloxy-D-glutamine] | − | cannot cleave | 
CC(C)(C)C1CCC(OC(=O)N[C@@H](CCC(N)=O)C(=O)O)CC1 (stereo partly drawn) [Nα-(4-tert-Butylcyclohexyloxycarbonyl)-L-glutamine] |  | able to be cleaved | 
NC(=O)CC[C@H](NC(=O)OCc1ccccc1)C(=O)O [compound 4, Carbobenzyloxy-L-glutamine] | ++ (++ cleavage 10–50%) |  | cleavage of substrate by enzyme (in words) ([2]; listed as Nα-Carbobenzyloxy-L-glutamine): able to be cleaved; cleavage of substrate by enzyme (in words) ([2]; listed as Nα-carbobenzyloxy-L-glutamine): can cleave
CC(C)C[C@H](NC(=O)OCc1ccccc1)C(=O)O [compound 18, Carbobenzyloxy-L-leucine] | − |  | 
C[C@H](NC(=O)OCc1ccccc1)C(=O)O [compound 10, Carbobenzyloxy-L-alanine] | + (+ indicates cleavage < 10%) |  | 
CCC(NCCNC(CC)C(=O)O)C(=O)O (stereo not drawn) [Ethylen-diimino-dibutyric acid] |  |  | % inhibition of the isolated enzyme [1]: 44.3%; % inhibition of enzyme activity in living cells [3]: 53.7%
O=C(O)CNC(=O)OCc1ccccc1 [compound 16, Carbobenzyloxy-L-glycine] | − |  | 
CC1=CCC(CCOC(=O)N[C@@H](CCC(N)=O)C(=O)O)C1(C)C (stereo partly drawn) [Nα-[2-(2,2,3-trimethyl-cyclopent-3-enyl)-ethoxycarbonyl)-L-glutamine] |  | able to be cleaved | 
